Source: patent US9539316B2, “Blood stage malaria vaccine” (priority 2011, dated 2017)

What was measured:
[1] = system: P. vinckei; format: in vivo, A/J mice; details: for protection against heterologous challenge: 3 doses of 10^6 P. chabaudi pRBC (ring stages) i.v. 2 weeks apart, compound 2 μM, 40 minutes, 37° C., challenge 10^4 P. vinckei (FIG. 7B)
[2] = system: P. chabaudi; details: 500 μL blood of mice immunized with 10^7 centanamycin (2 μM or 200 nM) attenuated pRBC taken at day 42 post-innoculation, transferred to naïve reporter mice
[3] = system: P. chabaudi; format: in vivo, A/J mice; details: for protection against homologous challenge: 3 doses of 10^6 pRBC (ring stages) i.v. 2 weeks apart, compound 2 μM, 40 minutes, 37° C., challenge 10^5 P. chabaudi (FIG. 7A)

Question: For `COc1cc2cc(C(=O)Nc3cc(O)c4ncc(C)cc4c3CCCl)[nH]c2c(OC)c1OC` [AS-VIII-104], which “protection against heterologous challenge” value [1] is on record?
Answer: performed similarly to centanamycin

Question: Which “parasites detected by microscopy” value [2] does the source give for `COc1cc2cc(C(=O)Nc3cc(N)c4ccccc4c3CCCl)[nH]c2c(OC)c1OC` [centanamycin] here?
Answer: no parasites detected

Question: What about the “parasitaemia by day 11 post-challenge” value ([3]; 3 doses of 10^4, 10^5 or 10^6 pRBC, each group, centanamycin 2 μM (FIG. 4)) of the same compound?
Answer: little or no parasitaemia

Question: What about the “protection against homologous challenge” value [3] of the same compound?
Answer: lower

Question: What about the “parasitaemia compared between dose groups, e.g. at day 9 post-challenge” value ([3]; 3 doses of 10^6 pRBC versus 10^4 and 10^5, centanamycin 2 μM (FIG. 4)) of the same compound?
Answer: lowest

Question: And the “vaccination efficacy, 200 nM attenuation” value ([3]; 3 doses or a single dose of 10^4 P. chabaudi pRBC treated with 200 nM centanamycin (FIG. 3))?
Answer: effectively vaccinated

Question: And the “vaccine efficacy, 3 doses” value ([3]; centanamycin attenuated P. chabaudi pRBC, 3 doses of vaccine)?
Answer: work effectively

Question: What about the clinical score data ([3]; immunization with 10^6 centanamycin-treated parasites and challenge (FIG. 6)) of the same compound?
Answer: protected not only from death and high parasitemia but also from symptoms

Question: And the “immunity to virulent challenge (parasitemia)” value ([3]; pRBC treated in vitro with 2 μM centanamycin, 5 doses i.v. 1 week apart, 10^4 parasites each, challenge 10^5 homologous WT pRBC)?
Answer: induces immunity to virulent challenge

Question: And the “protection, single dose” value ([3]; single dose of 10^4 pRBC, centanamycin 2 μM, challenge 10^5 pRBC 35 days after vaccination (FIG. 2))?
Answer: induces protection in most animals

Question: And the “parasitaemia at day 8 and 9 post-challenge versus 2 μM attenuated parasites” value ([3]; single dose of 10^7 pRBC attenuated using 200 nM centanamycin (FIG. 5))?
Answer: more significant parasitaemia

Question: And the “recovery by day 13 post-innoculation” value ([3]; single dose of 10^7 pRBC attenuated using 200 nM centanamycin, compared with 2 μM (FIG. 5))?
Answer: recovered to the same extent

Question: Which results are given for `COc1cc2cc(C(=O)N3CC(CCl)c4c3cc(O)c3ccoc43)[nH]c2c(OC)c1OC` (stereo not shown) [tafuramycin A, seco-iso-cyclopropylfurano[2,3-e]indoline-TMI]?
Answer: protection against homologous challenge [3]: near complete protection; peak parasite density ([1]; 1 mouse of the group, P. vinckei challenge): approximately 20%; protection against heterologous challenge [1]: very significant protection; recovery by day 12 ([1]; P. vinckei challenge, all animals): all the animals had fully recovered
